Measured values as given in BindingDB's records for doi:10.3109/14756366.2012.727812 (Shiraz University, 2013).
Where “and” joins values, the source holds several entries; their conditions need not be identical. Equal entries are not always repeated.

Biological target: Alpha-glucosidase MAL12 (Saccharomyces cerevisiae (strain ATCC 204508 / S288c), UniProt P53341)
Assay: Inhibition Assay
Settings: pH 7
Protocol: In this study, the inhibition assay of yeast enzyme was performed in 100 mM phosphate buffer pH 7.0 at 25°C with minor changes, according to the methods reported previously. [Saijyo et al., J. Oleo. […] After centrifugation, the supernatant was dialyzed against 10 mM potassium phosphate buffer (pH 7.0) containing 0.

Alpha-glucosidase MAL12, sequence (P53341 whole entry): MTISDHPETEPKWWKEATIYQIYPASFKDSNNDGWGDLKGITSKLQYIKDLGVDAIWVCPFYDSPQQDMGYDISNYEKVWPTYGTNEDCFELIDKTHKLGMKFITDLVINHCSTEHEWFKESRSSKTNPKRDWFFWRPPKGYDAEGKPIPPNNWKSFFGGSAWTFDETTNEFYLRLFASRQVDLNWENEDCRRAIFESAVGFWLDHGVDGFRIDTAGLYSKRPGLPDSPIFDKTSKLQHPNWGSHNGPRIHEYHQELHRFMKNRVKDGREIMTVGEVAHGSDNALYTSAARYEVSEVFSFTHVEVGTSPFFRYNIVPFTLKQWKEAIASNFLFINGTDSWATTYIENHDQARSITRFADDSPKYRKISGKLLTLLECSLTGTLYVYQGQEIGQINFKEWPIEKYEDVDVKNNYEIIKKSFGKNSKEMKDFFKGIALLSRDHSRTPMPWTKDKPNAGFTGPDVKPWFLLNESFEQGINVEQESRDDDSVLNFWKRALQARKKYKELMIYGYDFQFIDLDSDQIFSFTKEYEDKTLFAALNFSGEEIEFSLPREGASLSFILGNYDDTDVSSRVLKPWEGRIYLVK

Row | IC50 | Ki | Compound
1 | 74.9 µM | 70 µM and 170 µM | O=c1[nH]c2c(c(=O)[nH]1)C(C(O)C(O)C(O)C(O)CO)c1c([nH]c(=O)[nH]c1=O)N2c1ccc(O)cc1 (stereo not drawn) [α-Gl inhibitor, C1]
2 | 25.1 µM | 30 µM and 130 µM | O=c1[nH]c2c(c(=O)[nH]1)C(C(O)C(O)C(O)C(O)CO)c1c([nH]c(=O)[nH]c1=O)N2c1ccc(Br)cc1 (stereo not drawn) [α-Gl inhibitor, C2]

Row | Compound | IC50 | Ki
3 | Nc1ccc(S(=O)(=O)c2ccc(N3c4[nH]c(=O)[nH]c(=O)c4C(C(O)C(O)C(O)C(O)CO)c4c3[nH]c(=O)[nH]c4=O)cc2)cc1 (stereo not drawn) [α-Gl inhibitor, C3] | 9.6 µM | 14 µM
